Measurements reported in patent US20230149408A1, “INHIBITORS OF HUMAN IMMUNODEFICIENCY VIRUS REPLICATION” (VIIV HEALTHCARE UK (No. 5) LIMITED, priority 2020, published 2023).
Like-named read-outs stand apart in the source and are kept apart here.

Assays:
Assay type in all cases: cell-based
recombinant NL4-3 virus = test: HIV cell culture assay: antiviral activity toward recombinant NL4-3 Renilla luciferase virus in MT-2 cells
Protocol: HIV cell culture assay - MT-2 cells, 293T cells and the proviral DNA clone of NL4-3 virus were obtained from the NIH AIDS Research and Reference Reagent Program. MT-2 cells were propagated in RPMI 1640 media supplemented with 10% heat inactivated fetal bovine serum (FBS), […]. The 293T cells were propagated in DMEM media supplemented with 10% heat inactivated FBS, […]. A recombinant NL4-3 proviral clone, in which a section of the nef gene was replaced with the Renilla luciferase gene, was used to make the reference virus used in these studies. The recombinant virus was prepared through transfection of the recombinant NL4-3 proviral clone into 293T cells using Transit-293 Transfection Reagent from Mirus Bio LLC (Madison, WI). Supernatent was harvested after 2-3 days and the amount of virus present was titered in MT-2 cells using luciferase enzyme activity as a marker by measuring luciferase enzyme activity. Luciferase was quantitated using the EnduRen Live Cell Substrate from Promega (Madison, WI). Antiviral activities of compounds toward the recombinant virus were quantified by measuring luciferase activity in MT-2 cells infected for 4-5 days with the recombinant virus in the presence of serial dilutions of the compound.
The 50% effective concentration (EC50) was calculated by using the exponential form of the median effect equation where (Fa) = 1/[1+ (ED50/drug conc.)m] (Johnson VA, Byington RT. Infectivity Assay. In Techniques in HIV Research. ed. Aldovini A, Walker BD. 71-76. New York: Stockton Press.1990). The 50% inhibitory concentration (EC50) was calculated by using the exponential form of the median effect equation where percent inhibition = 1/[1 + (EC50/drug concentration)m], where m is a parameter that reflects the slope of the concentration-response curve.

[1] = Compound cytotoxicity, XTT-based colorimetric assay; settings: human; uninfected MT2 cells, day 4, XTT
Protocol: (§1) Compound cytotoxicity and the corresponding CC50 values were determined using the same protocol as described in the antiviral assay except that uninfected cells were used. Cytotoxicity was assessed on day 4 in uninfected MT2 cells by using a XTT (2,3-bis[2-Methoxy-4-nitro-5-sulfophenyl]-2H-tetrazolium-5-carboxyanilide inner salt)-based colorimetric assay (Sigma-Aldrich, St Louis, Mo).

uninfected MT2 cells = test: as above; settings: day 4, XTT
Protocol: as §1

[2] = Human immunodeficiency virus 1, NL43, MT2

In the case of `Cn1nc(NS(C)(=O)=O)c2cccc(-n3c([C@H](Cc4cc(F)cc(F)c4)NC(=O)Cn4nc(C(F)F)c5c4C(F)(F)[C@@H]4C[C@H]54)nc4nc(OCCC(C)(F)F)ccc4c3=O)c21` (single isomer, unassigned) [Example 3], the EC50 (recombinant NL4-3 virus; [2]) is reported as 0.019 nM and the CC50 at 4 day [1] is reported as > 20000 nM.

In the case of `Cn1nc(NS(C)(=O)=O)c2c(Cl)ccc(-n3c([C@H](Cc4cc(F)cc(F)c4)NC(=O)Cn4nc(C(F)F)c5c4C(F)(F)[C@@H]4C[C@H]54)nc4nc(OCCC(F)(F)F)ccc4c3=O)c21` (atropisomer, axis not shown; (P)) [Example 4, N-(1-((6P)-3-(4-chloro-1-methyl-3-(methylsulfonamido)-1H-indazol-7-yl)-4-oxo-7-(3,3,3-trifluoropropoxy)-3,4-dihydropyrido[2,3-d]pyrimidin-2-yl)-2-(3,5-difluorophenyl)ethyl)-2-((3bS,4aR)-3-(difluoromethyl)-5,5-difluoro-3b,4,4a,5-tetrahydro-1H-cyclopropa[3,4]cyclopenta[1,2-c]pyrazol-1-yl)acetamide], the EC50 (recombinant NL4-3 virus; [2]) is reported as 0.025 nM and the CC50 at 4 day [1] is reported as > 500 nM.

In the case of `Cn1nc(NS(C)(=O)=O)c2c(Cl)ccc(-n3c([C@H](Cc4cc(F)cc(F)c4)NC(=O)Cn4nc(C(F)F)c5c4C(F)(F)[C@@H]4C[C@H]54)nc4cc(-c5cccc(C(F)(F)F)n5)ccc4c3=O)c21` [Example 1, N-((S)-1-((3P)-3-(4-chloro-1-methyl-3-(methylsulfonamido)-1H-indazol-7-yl)-4-oxo-7-(6-(trifluoromethyl)pyridin-2-yl)-3,4-dihydroquinazolin-2-yl)-2-(3,5-difluorophenyl)ethyl)-2-((3bS,4aR)-3-(difluoromethyl)-5,5-difluoro-3b,4,4a,5-tetrahydro-1H-cyclopropa[3,4]cyclopenta[1,2-c]pyrazol-1-yl)acetamide], the EC50 (recombinant NL4-3 virus; MT-2 cells infected 4-5 days, luciferase activity, read-out: EC50) is reported as 0.093 nM and the CC50 (uninfected MT2 cells) is reported as > 20000 nM.

In the case of `Cn1nc(NS(C)(=O)=O)c2c(Cl)ccc(-n3c([C@H](Cc4cc(F)cc(F)c4)NC(=O)Cn4nc(C(F)F)c5c4C(F)(F)[C@@H]4C[C@H]54)nc4cc(-c5nccc(C(F)F)n5)ccc4c3=O)c21` (single isomer, unassigned) [Example 2], the EC50 (recombinant NL4-3 virus; [2]) is reported as 0.043 nM and the CC50 at 4 day [1] is reported as > 20000 nM.
